Test results published in patent publication US20090325964A1, “Piperazine Metabotropic Glutamate Receptor 5 (MGLUR5) Negative Allosteric Modulators For Anxiety/Depression” (Wyeth, priority 2008, published 2009).
pIC50, pKi: −log10 of the molar value.

Each molecule was assayed against mGluR5 (Rattus norvegicus, UniProt P31424) (assay: IC50 column under 'Biological Activity' (assay not identified in the shown text; not the binding Ki)). Details: not given.
Chain of mGluR5 (P31424 21-1203): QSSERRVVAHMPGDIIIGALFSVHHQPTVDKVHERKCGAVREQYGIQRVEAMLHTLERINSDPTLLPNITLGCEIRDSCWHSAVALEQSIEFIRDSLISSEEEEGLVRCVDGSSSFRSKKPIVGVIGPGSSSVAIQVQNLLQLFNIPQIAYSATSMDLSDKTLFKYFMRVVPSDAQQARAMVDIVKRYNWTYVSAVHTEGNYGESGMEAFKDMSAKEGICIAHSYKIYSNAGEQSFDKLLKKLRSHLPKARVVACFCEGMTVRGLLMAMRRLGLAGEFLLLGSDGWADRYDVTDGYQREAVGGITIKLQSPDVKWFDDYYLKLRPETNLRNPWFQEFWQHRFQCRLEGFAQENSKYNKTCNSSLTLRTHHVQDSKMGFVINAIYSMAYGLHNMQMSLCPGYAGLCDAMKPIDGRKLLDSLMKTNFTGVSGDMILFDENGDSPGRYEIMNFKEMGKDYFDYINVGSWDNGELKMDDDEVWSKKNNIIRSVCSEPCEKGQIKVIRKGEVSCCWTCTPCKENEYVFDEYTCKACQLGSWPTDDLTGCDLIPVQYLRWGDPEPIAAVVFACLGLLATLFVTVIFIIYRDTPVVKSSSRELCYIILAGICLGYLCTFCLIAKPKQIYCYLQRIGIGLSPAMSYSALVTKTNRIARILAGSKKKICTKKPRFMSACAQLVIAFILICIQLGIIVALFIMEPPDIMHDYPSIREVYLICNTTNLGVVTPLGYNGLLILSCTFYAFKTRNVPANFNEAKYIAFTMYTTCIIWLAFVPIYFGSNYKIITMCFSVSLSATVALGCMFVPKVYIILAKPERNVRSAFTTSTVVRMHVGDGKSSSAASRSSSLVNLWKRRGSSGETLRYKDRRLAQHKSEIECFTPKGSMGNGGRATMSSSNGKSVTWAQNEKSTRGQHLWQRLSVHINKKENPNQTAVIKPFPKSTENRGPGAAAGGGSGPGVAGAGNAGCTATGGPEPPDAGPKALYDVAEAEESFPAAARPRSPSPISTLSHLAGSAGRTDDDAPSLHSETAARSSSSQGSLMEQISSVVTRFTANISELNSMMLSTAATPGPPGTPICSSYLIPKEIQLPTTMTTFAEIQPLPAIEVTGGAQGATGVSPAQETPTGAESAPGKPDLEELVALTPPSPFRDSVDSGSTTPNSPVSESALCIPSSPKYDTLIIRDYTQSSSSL

SMILES | pIC50
COc1ccc(C(=O)N2CCN(c3ccc(C(F)(F)F)cn3)CC2)cc1C#Cc1ccccn1 [Compound 183, 1-[4-methoxy-3-(pyridin-2-ylethynyl)benzoyl]-4-[5-(trifluoromethyl)pyridin-2-yl]piperazine] | 7.18
COc1ccc(C(=O)N2CCN(c3ncc(Cl)cc3Cl)CC2)cc1C#Cc1ccccn1 [Compound 185, 1-(3,5-dichloropyridin-2-yl)-4-[4-methoxy-3-(pyridin-2-ylethynyl)benzoyl]piperazine] | 7.37

The remaining lines, values ahead:

pIC50 | SMILES
6.93 | COc1ccc(C(=O)N2CCN(c3ncccc3C(F)(F)F)CC2)cc1C#Cc1ccccn1 [Compound 184, 1-[4-methoxy-3-(pyridin-2-ylethynyl)benzoyl]-4-[3-(trifluoromethyl)pyridin-2-yl]piperazine]
7.47 | COc1ccc(C(=O)N2CCN(c3cccc(C)n3)CC2)cc1C#Cc1ccccn1 [Compound 198, 1-[4-methoxy-3-(pyridin-2-ylethynyl)benzoyl]-4-(6-methylpyridin-2-yl)piperazine]
7.14 | COc1ccc(C(=O)N2CCN(c3ncccn3)CC2)cc1C#Cc1ccccn1 [Compound 353, 2-{4-[4-methoxy-3-(pyridin-2-ylethynyl)benzoyl]piperazin-1-yl}pyrimidine]

These molecules were tested against T1, rat mGluR5 receptor (Rattus norvegicus, UniProt P31424) (assay: [3H]-MPEP displacement binding assay, HEK-293 cell membranes expressing rat mGluR5). Details: [3H]-MPEP displacement, rat mGluR5; no Ki given; read-out: IC50 (printed in the Median Ki column instead of a Ki).
T1 construct: expressed in transfected cells; host or cells: HEK-293
T1 sequence (P31424 21-1203): as above
Procedure, shortened: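 Membranes from HEK-293 cells expressing rat mGluR5 (12-25 μg protein), incubated 60 min at room temperature with 4 nM [3H]-MPEP in 50 mM Tris pH 7.5, then filtered. Nonspecific binding defined with 10 μM MPEP.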

pIC50 | SMILES
< 5.00 | COc1ccc(C(=O)N2CCN(c3ncccn3)CC2)cc1C#Cc1ccc(OCc2ccccc2)cc1 [Compound 358, 2-[4-(3-{[4-(benzyloxy)phenyl]ethynyl}-4-methoxybenzoyl)piperazin-1-yl]pyrimidine]

Same assay, conditions: [3H]-MPEP displacement, rat mGluR5; read-out: Median Ki

SMILES | pKi
COc1ccc(C(=O)N2CCN(c3ccc(C(F)(F)F)cn3)CC2)cc1C#Cc1ccccn1 [Compound 183, 1-[4-methoxy-3-(pyridin-2-ylethynyl)benzoyl]-4-[5-(trifluoromethyl)pyridin-2-yl]piperazine] | 7.39
COc1ccc(C(=O)N2CCN(c3ncc(Cl)cc3Cl)CC2)cc1C#Cc1ccccn1 [Compound 185, 1-(3,5-dichloropyridin-2-yl)-4-[4-methoxy-3-(pyridin-2-ylethynyl)benzoyl]piperazine] | 7.33

The remaining lines, values ahead:

pKi | SMILES
7.11 | COc1ccc(C(=O)N2CCN(c3ncccc3C(F)(F)F)CC2)cc1C#Cc1ccccn1 [Compound 184, 1-[4-methoxy-3-(pyridin-2-ylethynyl)benzoyl]-4-[3-(trifluoromethyl)pyridin-2-yl]piperazine]
5.37 | COc1ccc(C(=O)N2CCN(c3ncccc3Cl)CC2)cc1C#Cc1ccccc1F [Compound 351, 1-(3-chloropyridin-2-yl)-4-{3-[(2-fluorophenyl)ethynyl]-4-methoxybenzoyl}piperazine]
5.50 | COc1ccc(C(=O)N2CCN(c3ncccc3Cl)CC2)cc1C#Cc1ccc(Cl)cc1 [Compound 352, 1-{3-[(4-chlorophenyl)ethynyl]-4-methoxybenzoyl}-4-(3-chloropyridin-2-yl)piperazine]
5.30 | COc1ccc(C(=O)N2CCN(c3ncccn3)CC2)cc1C#Cc1cccnc1 [Compound 354, 2-{4-[4-methoxy-3-(pyridin-3-ylethynyl)benzoyl]piperazin-1-yl}pyrimidine]
5.80 | COc1ccc(C(=O)N2CCN(c3ncccn3)CC2)cc1C#Cc1ccncc1 [Compound 355, 2-{4-[4-methoxy-3-(pyridin-4-ylethynyl)benzoyl]piperazin-1-yl}pyrimidine]
6.54 | COc1ccc(C(=O)N2CCN(c3ncccn3)CC2)cc1C#Cc1cccc(OC(F)(F)F)c1 [Compound 356, 2-[4-(4-methoxy-3-{[3-(trifluoromethoxy)phenyl]ethynyl}benzoyl)piperazin-1-yl]pyrimidine]
6.62 | COc1ccc(C(=O)N2CCN(c3ncccn3)CC2)cc1C#Cc1cccc([N+](=O)[O-])c1 [Compound 357, 2-(4-{4-methoxy-3-[(3-nitrophenyl)ethynyl]benzoyl}piperazin-1-yl)pyrimidine]
6.54 | COc1ccc(C(=O)N2CCN(c3ncccn3)CC2)cc1C#Cc1ccccc1F [Compound 359, 2-(4-{3-[(2-fluorophenyl)ethynyl]-4-methoxybenzoyl}piperazin-1-yl)pyrimidine]
5.35 | COc1ccc(C(=O)N2CCN(c3ncccn3)CC2)cc1C#Cc1ccccc1Cl [Compound 360, 2-(4-{3-[(2-chlorophenyl)ethynyl]-4-methoxybenzoyl}piperazin-1-yl)pyrimidine]
6.05 | COc1ccc(C(=O)N2CCN(c3ncccn3)CC2)cc1C#Cc1ccc(Cl)cc1 [Compound 363, 2-(4-{3-[(4-chlorophenyl)ethynyl]-4-methoxybenzoyl}piperazin-1-yl)pyrimidine]
6.64 | COc1ccc(C(=O)N2CCN(c3ncccn3)CC2)cc1C#Cc1cccc(OC(F)F)c1 [Compound 364, 2-[4-(3-{[3-(difluoromethoxy)phenyl]ethynyl}-4-methoxybenzoyl)piperazin-1-yl] pyrimidine]

Same assay, conditions: [3H]-MPEP displacement, rat mGluR5 membranes; read-out: Median Ki

pKi | SMILES
6.34 | N#Cc1nccnc1N1CCN(C(=O)c2ccc(C(F)(F)F)c(C#Cc3ccccn3)c2)CC1 [Compound 366, 3-(4-{[3-(pyridin-2-ylethynyl)-4-(trifluoromethyl)phenyl]carbonyl}piperazin-1-yl) pyrazine-2-carbonitrile]
5.53 | O=C(c1ccc(C(F)(F)F)c(C#Cc2ccccn2)c1)N1CCN(c2ncc(Cl)cc2Cl)CC1 [Compound 368, 1-(3,5-dichloropyridin-2-yl)-4-{[3-(pyridin-2-ylethynyl)-4-(trifluoromethyl)phenyl]carbonyl}piperazine]
6.79 | O=C(c1ccc(C(F)(F)F)c(C#Cc2ccccn2)c1)N1CCN(c2ncccn2)CC1 [Compound 370, 2-(4-{[3-(pyridin-2-ylethynyl)-4-(trifluoromethyl)phenyl]carbonyl}piperazin-1-yl)pyrimidine]
6.00 | O=C(c1ccc(C(F)(F)F)c(C#Cc2ccccn2)c1)N1CCN(c2ncccc2Cl)CC1 [Compound 371, 1-(3-chloropyridin-2-yl)-4-{[3-(pyridin-2-ylethynyl)-4-(trifluoromethyl)phenyl]carbonyl}piperazine]
6.53 | Cc1ccc(N2CCN(C(=O)c3ccc(C(F)(F)F)c(C#Cc4ccccn4)c3)CC2)nc1 [Compound 372, 1-(5-methylpyridin-2-yl)-4-{[3-(pyridin-2-ylethynyl)-4-(trifluoromethyl)phenyl]carbonyl}piperazine]
6.09 | O=C(c1ccc(C(F)(F)F)c(C#Cc2ccccn2)c1)N1CCN(Cc2cccc(F)c2)CC1 [Compound 376, 1-(3-fluorobenzyl)-4-{[3-(pyridin-2-ylethynyl)-4-(trifluoromethyl)phenyl]carbonyl}piperazine]
5.51 | O=C(c1ccc(C(F)(F)F)c(C#Cc2ccccn2)c1)N1CCN(c2ccc(C(F)(F)F)cn2)CC1 [Compound 379, 1-{[3-(pyridin-2-ylethynyl)-4-(trifluoromethyl)phenyl]carbonyl}-4-[5-(trifluoromethyl)pyridin-2-yl]piperazine]
6.45 | Cc1cccc(N2CCN(C(=O)c3ccc(C(F)(F)F)c(C#Cc4ccccn4)c3)CC2)n1 [Compound 380, 1-(6-methylpyridin-2-yl)-4-{[3-(pyridin-2-ylethynyl)-4-(trifluoromethyl)phenyl]carbonyl}piperazine]
6.79 | O=C(c1ccc(C(F)(F)F)c(C#Cc2ccccn2)c1)N1CCN(c2cnccn2)CC1 [Compound 381, 2-(4-{[3-(pyridin-2-ylethynyl)-4-(trifluoromethyl)phenyl]carbonyl}piperazin-1-yl)pyrazine]
6.92 | O=C(c1ccc(Cl)c(C#Cc2ccccn2)c1)N1CCN(c2cccc(C(F)(F)F)c2)CC1 [Compound 392, 1-[4-chloro-3-(pyridin-2-ylethynyl)benzoyl]-4-[3-(trifluoromethyl)phenyl]piperazine]

Same assay, conditions: bound printed in place of a Ki; read-out: IC50 (printed in the Median Ki column)

pIC50 | SMILES
< 5.00 | COc1nc(N2CCN(C(=O)c3ccc(C(F)(F)F)c(C#Cc4ccccn4)c3)CC2)ncc1Br [Compound 365, 5-bromo-4-methoxy-2-(4-{[3-(pyridin-2-ylethynyl)-4-(trifluoromethyl)phenyl]carbonyl}piperazin-1-yl)pyrimidine]
< 5.00 | O=C(c1ccc(C(F)(F)F)c(C#Cc2ccccn2)c1)N1CCN(c2nc3ccccc3s2)CC1 [Compound 377, 2-(4-{[3-(pyridin-2-ylethynyl)-4-(trifluoromethyl)phenyl]carbonyl}piperazin-1-yl)-1,3-benzothiazole]
